Experiments:
[1] = Cytotoxicity against HEK293T cells assessed as reduction in cell viability by MTT assay; format: toxicity, cell-based, HEK-293T; details: human
[2] = test system: Human immunodeficiency virus 1; experiment: Antiviral activity against HIV1 VSV-G pseudotyped virus infected in human HEK293T cells assessed as inhibition of viral growth preincubated for 3 hrs followed by washout and further incubated with compound for 72 hrs by luciferase assay; format: functional, organism-based; details: Human immunodeficiency virus 1, HEK-293T
[3] = Selectivity index, ratio of CC50 for cytotoxicity against HEK293T cells assessed as reduction in cell viability by MTT assay to EC50 for antiviral activity against HIV1 VSV-G pseudotyped virus infected in human HEK293T cells assessed as inhibition of viral growth; format: toxicity, cell-based; details: read-out: Ratio CC50/EC50

SMILES	CC50 [1]	EC50 [2]	selectivity ratio [3]
[N-]=[N+]=N[C@]1(CO)O[C@@H](n2cnc3c(N)nc(F)nc32)[C@@H](F)[C@@H]1O	> 100000 nM	1.99 nM	> 50300
C#C[C@]1(CO)O[C@@H](n2cnc3c(N)ncnc32)[C@@H](F)[C@@H]1O	56500 nM	2.3 nM	24600
